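Dose response: 5 concentrations. Exposure: 48 h. Format: 96-well plates. Endpoint: linear interpolation; highest concentration if not reached. Definition used: TGI = concentration required for complete inhibition of growth.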
Experiments:
Experiment in all cases: growth of human tumour cells (NCI), 48 h
786-0 renal = tested on: 786-0 renal
A498 renal = tested on: A498 renal
A549 NSCLC = tested on: A549 NSCLC
ACHN renal = tested on: ACHN renal
BT-549 breast = tested on: BT-549 breast
CAKI-1 renal = tested on: CAKI-1 renal
CCRF-CEM leukemia = tested on: CCRF-CEM leukemia
COLO 205 colon = tested on: COLO 205 colon
DLD-1 colon = tested on: DLD-1 colon
DMS 114 small cell lung = tested on: DMS 114 small cell lung
DMS 273 small cell lung = tested on: DMS 273 small cell lung
DU-145 prostate = tested on: DU-145 prostate
EKVX NSCLC = tested on: EKVX NSCLC
HCC-2998 colon = tested on: HCC-2998 colon
HCT-116 colon = tested on: HCT-116 colon
HCT-15 colon = tested on: HCT-15 colon
HL-60(TB) leukemia = tested on: HL-60(TB) leukemia
HOP-62 NSCLC = tested on: HOP-62 NSCLC
HOP-92 NSCLC = tested on: HOP-92 NSCLC
HS 578T breast = tested on: HS 578T breast
HT29 colon = tested on: HT29 colon
IGROV1 ovarian = tested on: IGROV1 ovarian
K-562 leukemia = tested on: K-562 leukemia
KM12 colon = tested on: KM12 colon
KM20L2 colon = tested on: KM20L2 colon
LOX IMVI melanoma = tested on: LOX IMVI melanoma
LXFL 529 NSCLC = tested on: LXFL 529 NSCLC
M14 melanoma = tested on: M14 melanoma
M19-MEL melanoma = tested on: M19-MEL melanoma
MALME-3M melanoma = tested on: MALME-3M melanoma
MCF7 breast = tested on: MCF7 breast
MDA-MB-231 breast = tested on: MDA-MB-231 breast
MDA-MB-435 = tested on: MDA-MB-435
MDA-N = tested on: MDA-N
MOLT-4 leukemia = tested on: MOLT-4 leukemia
NCI-H226 lung = tested on: NCI-H226 lung
NCI-H23 lung = tested on: NCI-H23 lung
NCI-H460 lung = tested on: NCI-H460 lung
NCI-H522 lung = tested on: NCI-H522 lung
OVCAR-3 ovarian = tested on: OVCAR-3 ovarian
OVCAR-4 ovarian = tested on: OVCAR-4 ovarian
OVCAR-5 ovarian = tested on: OVCAR-5 ovarian
OVCAR-8 ovarian = tested on: OVCAR-8 ovarian
PC-3 prostate = tested on: PC-3 prostate
RPMI-8226 leukemia = tested on: RPMI-8226 leukemia
RXF 393 renal = tested on: RXF 393 renal
SF-268 CNS = tested on: SF-268 CNS
SF-295 CNS = tested on: SF-295 CNS
SF-539 CNS = tested on: SF-539 CNS
SK-MEL-2 melanoma = tested on: SK-MEL-2 melanoma
SK-MEL-28 melanoma = tested on: SK-MEL-28 melanoma
SK-MEL-5 melanoma = tested on: SK-MEL-5 melanoma
SK-OV-3 ovarian = tested on: SK-OV-3 ovarian
SN12C renal = tested on: SN12C renal
SNB-19 CNS = tested on: SNB-19 CNS
SNB-75 CNS = tested on: SNB-75 CNS
SR leukemia = tested on: SR leukemia
SW-620 colon = tested on: SW-620 colon
T-47D breast = tested on: T-47D breast
TK-10 renal = tested on: TK-10 renal
U251 CNS = tested on: U251 CNS
UACC-257 melanoma = tested on: UACC-257 melanoma
UACC-62 melanoma = tested on: UACC-62 melanoma
UO-31 renal = tested on: UO-31 renal
XF 498 CNS = tested on: XF 498 CNS
SNB-78 CNS = tested on: SNB-78 CNS

COC1(C)Cc2c(c(C)c(O)c3c2C(=O)C=C(Cl)C3=O)O1 (stereo not given)
TGI (786-0 renal): > 100 µM
TGI (A498 renal): > 100 µM
TGI (A549 NSCLC): > 100 µM
TGI (ACHN renal): 56.5 µM
TGI (BT-549 breast): > 100 µM
TGI (CAKI-1 renal): 42 µM
TGI (CCRF-CEM leukemia): 26.3 µM
TGI (COLO 205 colon): 38.1 µM
TGI (DLD-1 colon): 37.1 µM
TGI (DMS 114 small cell lung): 76.6 µM
TGI (DMS 273 small cell lung): > 100 µM
TGI (DU-145 prostate): > 100 µM
TGI (EKVX NSCLC): > 100 µM
TGI (HCC-2998 colon): > 100 µM
TGI (HCT-116 colon): > 78 µM
TGI (HCT-15 colon): > 71.9 µM
TGI (HL-60(TB) leukemia): 14.8 µM
TGI (HOP-62 NSCLC): > 100 µM
TGI (HOP-92 NSCLC): 36.4 µM
TGI (HS 578T breast): > 100 µM
TGI (HT29 colon): 67 µM
TGI (IGROV1 ovarian): > 100 µM
TGI (K-562 leukemia): 36.8 µM
TGI (KM12 colon): > 100 µM
TGI (KM20L2 colon): > 100 µM
TGI (LOX IMVI melanoma): > 100 µM
TGI (LXFL 529 NSCLC): 28.9 µM
TGI (M14 melanoma): 56.5 µM
TGI (M19-MEL melanoma): 38.9 µM
TGI (MALME-3M melanoma): 19.7 µM
TGI (MCF7 breast): > 100 µM
TGI (MDA-MB-231 breast): 39.9 µM
TGI (MDA-MB-435): > 100 µM
TGI (MDA-N): > 100 µM
TGI (MOLT-4 leukemia): 46.2 µM
TGI (NCI-H226 lung): > 100 µM
TGI (NCI-H23 lung): > 100 µM
TGI (NCI-H460 lung): > 100 µM
TGI (NCI-H522 lung): 33 µM
TGI (OVCAR-3 ovarian): > 72.8 µM
TGI (OVCAR-4 ovarian): > 86.8 µM
TGI (OVCAR-5 ovarian): > 100 µM
TGI (OVCAR-8 ovarian): > 73.6 µM
TGI (PC-3 prostate): > 100 µM
TGI (RPMI-8226 leukemia): 52.1 µM
TGI (RXF 393 renal): 31.8 µM
TGI (SF-268 CNS): > 100 µM
TGI (SF-295 CNS): > 100 µM
TGI (SF-539 CNS): > 100 µM
TGI (SK-MEL-2 melanoma): > 100 µM
TGI (SK-MEL-28 melanoma): > 66.3 µM
TGI (SK-MEL-5 melanoma): > 100 µM
TGI (SK-OV-3 ovarian): > 100 µM
TGI (SN12C renal): > 96.7 µM
TGI (SNB-19 CNS): > 100 µM
TGI (SNB-75 CNS): > 100 µM
TGI (SR leukemia): 23.5 µM
TGI (SW-620 colon): 47.1 µM
TGI (T-47D breast): 36.7 µM
TGI (TK-10 renal): 45.6 µM
TGI (U251 CNS): > 100 µM
TGI (UACC-257 melanoma): > 69.5 µM
TGI (UACC-62 melanoma): > 87.5 µM
TGI (UO-31 renal): > 100 µM
TGI (XF 498 CNS): > 56.4 µM

O=C(Nc1ccc(Cl)cc1Cl)/C(Cl)=C1/Sc2ccccc2NC1=O
TGI (786-0 renal): > 100 µM
TGI (A498 renal): > 100 µM
TGI (A549 NSCLC): > 100 µM
TGI (ACHN renal): 78.9 µM
TGI (CAKI-1 renal): > 100 µM
TGI (CCRF-CEM leukemia): 83.4 µM
TGI (COLO 205 colon): > 100 µM
TGI (DLD-1 colon): > 100 µM
TGI (DMS 114 small cell lung): 80 µM
TGI (EKVX NSCLC): > 100 µM
TGI (HCC-2998 colon): > 100 µM
TGI (HCT-116 colon): 66.4 µM
TGI (HCT-15 colon): > 100 µM
TGI (HL-60(TB) leukemia): 53.8 µM
TGI (HOP-62 NSCLC): > 100 µM
TGI (HOP-92 NSCLC): 51.6 µM
TGI (IGROV1 ovarian): > 100 µM
TGI (K-562 leukemia): > 100 µM
TGI (KM20L2 colon): > 100 µM
TGI (LOX IMVI melanoma): > 100 µM
TGI (LXFL 529 NSCLC): > 100 µM
TGI (M14 melanoma): > 100 µM
TGI (M19-MEL melanoma): > 100 µM
TGI (MALME-3M melanoma): 77.9 µM
TGI (MOLT-4 leukemia): 87 µM
TGI (NCI-H226 lung): 79.2 µM
TGI (NCI-H23 lung): 55 µM
TGI (NCI-H460 lung): > 100 µM
TGI (NCI-H522 lung): 49 µM
TGI (OVCAR-4 ovarian): > 100 µM
TGI (OVCAR-5 ovarian): > 100 µM
TGI (OVCAR-8 ovarian): > 100 µM
TGI (RPMI-8226 leukemia): 65.9 µM
TGI (RXF 393 renal): 75.8 µM
TGI (SF-268 CNS): > 100 µM
TGI (SF-539 CNS): > 100 µM
TGI (SK-MEL-2 melanoma): 48.3 µM
TGI (SK-MEL-28 melanoma): 75.7 µM
TGI (SK-MEL-5 melanoma): 45.8 µM
TGI (SK-OV-3 ovarian): 80.4 µM
TGI (SN12C renal): > 100 µM
TGI (SNB-19 CNS): > 100 µM
TGI (SNB-75 CNS): 85.9 µM
TGI (SNB-78 CNS): > 100 µM
TGI (SW-620 colon): > 100 µM
TGI (TK-10 renal): > 100 µM
TGI (U251 CNS): > 100 µM
TGI (UACC-62 melanoma): > 100 µM
TGI (UO-31 renal): 77.2 µM
TGI (XF 498 CNS): 40.5 µM

— PubChem BioAssay (NCI)
